The values that follow come from ChEMBL document CHEMBL5634080, “Synthesis, biological evaluation and docking studies of silicon incorporated diarylpyrroles as MmpL3 inhibitors: An effective strategy towards development of potent anti-tubercular agents” (Eur J Med Chem, 2023).

A short description of series [1]: Solubility of the compound at 5 mM at pH 7.4 by HPLC analysis. The format is physicochemical. The following applies: buffer.
Series [2] in a line: Solubility of the compound at 5 mM at pH 10.2 by HPLC analysis. In kind it is physicochemical. Particulars: buffer.
Series [3] in a line: Metabolic stability in human liver microsomes at 50 uM measured after 30 mins by LC-MS/MS analysis. The format is ADME, Microsome. Particulars: read-out: Stability.
Series [4] in a line: Solubility of the compound at 5 mM at pH 4.5 by HPLC analysis. In kind it is physicochemical. The following applies: buffer.
Series [5] in a line: Solubility of the compound at 5 mM at pH 2.2 by HPLC analysis. In kind it is physicochemical. Particulars: buffer.
The test system of series [6] is Mycobacterium tuberculosis. In words: Antitubercular activity against Mycobacterium tuberculosis H37Rv assessed as inhibition of bacterial growth incubated for 6 days by Alamar Blue based assay. The format is functional. The following applies: 144 h, time 6 day. For orientation: Resazurin is reduced to fluorescent resorufin, in cell work by metabolically active cells.

Series [7] is described as follows: Metabolic stability in mouse liver microsomes at 50 uM measured after 30 mins by LC-MS/MS analysis. The format is ADME, Microsome. The following applies: read-out: Stability. In general terms: Liver microsomes are a subcellular fraction often used to study metabolism.
Series [8] in a line: Solubility of the compound at 5 mM at pH 1.2 by HPLC analysis. The format is physicochemical. Particulars: buffer.
The subject of series [9] is Mycobacterium tuberculosis. In words: Antitubercular activity against Mycobacterium tuberculosis H37Rv. The format is functional.
Series [10] can be described thus: Protein binding in human plasma at 150 uM by equilibrium dialysis method. The format is ADME, cell-free. The following applies: read-out: PPB (converted). For orientation: Equilibrium dialysis compares concentrations on both sides of a semipermeable membrane.
Series [11] is described as follows: Selectivity index, ratio of IC50 for cytotoxicity against mouse primary astrocytes cells to MIC for antitubercular activity against Mycobacterium tuberculosis H37Rv. In kind it is toxicity, cell-based. The following applies: read-out: Ratio IC50.
Series [12] can be described thus: Metabolic stability in human plasma at 50 uM measured after 60 mins by LC-MS/MS analysis. The format is ADME, cell-free. Particulars: read-out: Stability.
The test system of another series is HEK293. Nature of the series: Cytotoxicity against HEK293 cells assessed as reduction in cell viability at >45 uM measured after 24 hrs by MTT assay. Particulars: human, hek293, 24 h. The format is toxicity, cell-based.
The nature of series [13]: Selectivity index, ratio of IC50 for cytotoxicity against HEK293 cells to MIC for antitubercular activity against Mycobacterium tuberculosis H37Rv. In kind it is toxicity, cell-based. The following applies: human, read-out: Ratio IC50.
Series [14] in a line: Cytotoxicity against mouse primary astrocytes assessed as reduction in cell viability measured after 24 hrs by MTT assay. The format is toxicity, cell-based, Astrocyte.

≈ marks a conversion by molar mass, not a printed value. Some results are limits rather than exact numbers.

For the compound `Cc1c(CN2CCN(C)CC2)cc(-c2ccc(Cl)cc2)n1-c1ccc(Cl)cc1`, the solubility – broadly, how much of the substance goes into solution per volume – at 5000 µM in series [1] amounted to 26.7 µM (≈ 11.1 µg/mL); in [2], 5.38 µM (≈ 2.23 µg/mL); in series [4] it was 36.7 µM (≈ 15.2 µg/mL); in series [5], 42.2 µM (≈ 17.5 µg/mL); in series [8] it was 45.2 µM (≈ 18.7 µg/mL). Also, the remaining at 0.5 h, 50 µM was 79.8% in [3] and 62.4% in series [7]. Moreover, in series [6], the minimal inhibitory concentration (MIC) (in general, the lowest concentration found to suppress growth) is 1.7 µM (≈ 0.704 µg/mL).

Turning to `C[Si]1(C)CCN(Cc2cc(-c3ccc(Cl)cc3)n(-c3ccc(Cl)cc3)n2)CC1`, it took 0.07 µM (≈ 0.0301 µg/mL) to inhibit growth in series [9] (MIC).

Take `CSc1ccc(-c2c(CN3CC[Si](C)(C)CC3)cc(C)n2-c2ccc(F)cc2)cc1`: the MIC in [6] is 3.6 µM (≈ 1.58 µg/mL).

For `CCc1ccc(-n2c(C)cc(CN3CC[Si](C)(C)CC3)c2-c2ccc(OC)cc2)cc1`, the minimal inhibitory concentration (MIC) in [6] is 23.1 µM (≈ 10 µg/mL).

As for `CCc1ccc(-n2c(-c3ccc(Cl)cc3)cc(CN3CC[Si](C)(C)CC3)c2C)cc1`, the solubility at 5000 µM was determined as 1.19 µM (≈ 0.52 µg/mL) in [1]; 12.9 µM (≈ 5.65 µg/mL) in series [2]; 32.6 µM (≈ 14.3 µg/mL) in series [4]; 37.2 µM (≈ 16.3 µg/mL) in series [5]; 9.86 µM (≈ 4.31 µg/mL) in series [8]. The fraction unbound at 150 µM in series [10] is 0.0002. Also, the selectivity ratio in series [11] and in series [13] was over 250 throughout. Besides, the remaining at 0.5 h, 50 µM is 60.8% in series [3] and 75.5% in series [7]. Also, the remaining at 1 h, 50 µM in [12] was 95.7%. Moreover, the minimal inhibitory concentration (MIC) in series [6] turned out to be 0.1 µM (≈ 0.0437 µg/mL). Moreover, the Activity result in the series on HEK293 was “Non-Toxic”. Besides, the IC50 (as a rule, the point on the concentration scale where inhibition reaches its midpoint) at 24 h in series [14] is over 20 µM.

For `Cc1ccc(-c2cc(CN3CC[Si](C)(C)CC3)c(C)n2-c2ccc(F)cc2)cc1`, the solubility at 5000 µM in series [1] stood at 26.8 µM (≈ 10.9 µg/mL); in [2], 3.13 µM (≈ 1.27 µg/mL); in series [4] it was 42.6 µM (≈ 17.3 µg/mL); in series [5] it was 42.1 µM (≈ 17.1 µg/mL); in series [8], 43.7 µM (≈ 17.8 µg/mL). Further, the fraction unbound at 150 µM in series [10] is 0.0009. Besides, the selectivity ratio in series [11] and in series [13] was over 250 throughout. Also, the remaining at 0.5 h, 50 µM turned out to be 36.4% in [3] and 45.1% in series [7]. Also, the remaining at 1 h, 50 µM in [12] amounted to 96.9%. The minimal inhibitory concentration (MIC) in [6] was found to be 0.1 µM (≈ 0.0407 µg/mL). Moreover, the Activity result in the series with HEK293 is reported as “Non-Toxic”. Moreover, in series [14], the IC50 at 24 h is over 20 µM.

Turning to `CCc1ccc(-n2c(-c3ccc(OC)cc3)cc(CN3CC[Si](C)(C)CC3)c2C)cc1`, the MIC in [6] was 1.5 µM (≈ 0.649 µg/mL).

As for `Cc1c(CN2CC[Si](C)(C)CC2)cc(-c2ccc(Cl)cc2)n1-c1ccccc1`, the MIC in [6] turned out to be 0.1 µM (≈ 0.0409 µg/mL).

As for `CSc1ccc(-c2cc(CN3CC[Si](C)(C)CC3)c(C)n2-c2ccc(F)cc2)cc1`, in series [6], the MIC was 0.2 µM (≈ 0.0877 µg/mL).

As to `COc1ccc(-c2cc(CN3CC[Si](C)(C)CC3)c(C)n2-c2ccc(F)cc2)cc1`, the minimum inhibitory concentration (MIC) in series [6] was 1.5 µM (≈ 0.634 µg/mL).

On to `Cc1c(CN2CC[Si](C)(C)CC2)cc(-c2ccc(Cl)cc2)n1-c1ccc(Cl)cc1`, for which the solubility at 5000 µM in [1] came to 4.73 µM (≈ 2.1 µg/mL); in series [4], 36.7 µM (≈ 16.3 µg/mL); in series [5], 39.1 µM (≈ 17.3 µg/mL); in [8], 38.8 µM (≈ 17.2 µg/mL). Also, in series [10], the fraction unbound at 150 µM was 0.0002. The selectivity ratio in series [11] and in series [13] was over 250 each time. For the same compound, the remaining at 0.5 h, 50 µM in [3] was 56.7%; in [7], 86.3%. In addition, the remaining at 1 h, 50 µM in [12] is 99.4%. In addition, the MIC in series [6] turned out to be 0.1 µM (≈ 0.0443 µg/mL). The Activity entry in the series with HEK293 is “Non-Toxic”. Besides, in [14], the half-inhibitory concentration (IC50) at 24 h was over 20 µM.

In the case of `COc1ccc(-c2c(CN3CC[Si](C)(C)CC3)cc(C)n2-c2ccc(F)cc2)cc1`, in [6], the minimal inhibitory concentration (MIC) turned out to be 7.4 µM (≈ 3.13 µg/mL).

On to `CCc1ccc(-c2cc(CN3CC[Si](C)(C)CC3)c(C)n2-c2ccc(OC)cc2)cc1`, for which, in [6], the minimal inhibitory concentration (MIC) came out at 0.2 µM (≈ 0.0865 µg/mL).

With `NNC(=O)c1ccncc1` [ISONIAZID], the MIC in [6] was found to be 2.2 µM (≈ 0.302 µg/mL).

Regarding `Cc1c(C(=O)NN2CCCCC2)nn(-c2ccc(Cl)cc2Cl)c1-c1ccc(Cl)cc1` [RIMONABANT], inhibition of growth in series [9] (MIC) required 54 µM (≈ 25 µg/mL).
